ChEMBL document CHEMBL1201862, “PubChem BioAssay data set” (2004)
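Assay format: 96-well plates, 48-hour exposure. The concentration for 50% growth inhibition is given as GI50.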 The source made the active and inactive calls. Rule as the data show it: active = GI50 up to about 1.1 µM and inactive = higher.

How the values were obtained:
Assay in all cases: inhibition of tumour cell growth, NCI panel, 48 h
KM-20L2 = test system: KM-20L2
HL-60 = test system: HL-60
DMS-273 = test system: DMS-273
RXF 393 = test system: RXF 393
M19-MEL = test system: M19-MEL
MDA-N = test system: MDA-N
SF-295 = test system: SF-295
DU-145 = test system: DU-145
T47D = test system: T47D
OVCAR-4 = test system: OVCAR-4
MOLT-4 = test system: MOLT-4
PC-3 = test system: PC-3
MDA-MB-231 = test system: MDA-MB-231
XF498 = test system: XF498
HOP-18 = test system: HOP-18
SK-MEL-2 = test system: SK-MEL-2
HOP-92 = test system: HOP-92
BT-549 = test system: BT-549
DMS-114 = test system: DMS-114
OVCAR-8 = test system: OVCAR-8
CCRF-CEM = test system: CCRF-CEM
Hs-578T = test system: Hs-578T
DLD-1 = test system: DLD-1
SNB-78 = test system: SNB-78
NCI-H460 = test system: NCI-H460
SR = test system: SR
OVCAR-3 = test system: OVCAR-3
NCI/ADR-RES = test system: NCI/ADR-RES
RPMI-8226 = test system: RPMI-8226
LXFL 529 = test system: LXFL 529
HOP-62 = test system: HOP-62
MDA-MB-435 = test system: MDA-MB-435
K562 = test system: K562
HCT-15 = test system: HCT-15
MCF7 = test system: MCF7
CAKI-1 = test system: CAKI-1
SNB-19 = test system: SNB-19
NCI-H522 = test system: NCI-H522
EKVX = test system: EKVX
786-0 = test system: 786-0
Malme-3M = test system: Malme-3M
SF-268 = test system: SF-268
SF-539 = test system: SF-539
U-251 = test system: U-251
ACHN = test system: ACHN
SK-MEL-5 = test system: SK-MEL-5
A498 = test system: A498
HCC 2998 = test system: HCC 2998
SW-620 = test system: SW-620
SN12C = test system: SN12C
UO-31 = test system: UO-31
RXF 631 = test system: RXF 631
COLO 205 = test system: COLO 205
M14 = test system: M14
SK-OV-3 = test system: SK-OV-3
A549 = test system: A549
IGROV-1 = test system: IGROV-1
SNB-75 = test system: SNB-75
NCI-H23 = test system: NCI-H23
TK-10 = test system: TK-10
OVCAR-5 = test system: OVCAR-5
NCI-H226 = test system: NCI-H226
SK-MEL-28 = test system: SK-MEL-28
HT-29 = test system: HT-29
KM12 = test system: KM12
LOX IMVI = test system: LOX IMVI
UACC-62 = test system: UACC-62

COC(=O)C1c2cc3c(c(O)c2C(O)CC1(C)O)C(=O)c1c(O)cc2c(c1C3=O)OC1OC2(C)C(O)C(N(C)C)C1O (centres undefined)
GI50 (KM-20L2): > 100 µM (inactive) | GI50 (HL-60): 12.6 µM (inactive) | GI50 (DMS-273): > 100 µM (inactive) | GI50 (RXF 393): 12.4 µM (inactive) | GI50 (M19-MEL): > 100 µM (inactive) | GI50 (MDA-N): 1.57 µM (inactive) | GI50 (SF-295): 12.4 µM (inactive) | GI50 (DU-145): 1.7 µM (inactive) | GI50 (T47D): 1.71 µM (inactive) | GI50 (OVCAR-4): 12.9 µM (inactive) | GI50 (MOLT-4): 6.08 µM (inactive) | GI50 (PC-3): 1.2 µM (inactive) | GI50 (MDA-MB-231): 1.31 µM (inactive) | GI50 (XF498): > 100 µM (inactive) | GI50 (HOP-18): > 100 µM (inactive) | GI50 (SK-MEL-2): > 100 µM (inactive) | GI50 (HOP-92): 26.8 µM (inactive) | GI50 (BT-549): 4.9 µM (inactive) | GI50 (DMS-114): > 100 µM (inactive) | GI50 (OVCAR-8): 11.7 µM (inactive) | GI50 (CCRF-CEM): 6.37 µM (inactive) | GI50 (Hs-578T): 1.43 µM (inactive) | GI50 (DLD-1): > 100 µM (inactive) | GI50 (SNB-78): > 100 µM (inactive) | GI50 (NCI-H460): > 100 µM (inactive) | GI50 (SR): 8.49 µM (inactive) | GI50 (OVCAR-3): 12.7 µM (inactive) | GI50 (NCI/ADR-RES): 1.64 µM (inactive) | GI50 (RPMI-8226): 10.9 µM (inactive) | GI50 (LXFL 529): > 100 µM (inactive) | GI50 (HOP-62): 12.7 µM (inactive) | GI50 (MDA-MB-435): 1.75 µM (inactive) | GI50 (K562): 11.3 µM (inactive) | GI50 (HCT-15): 11.3 µM | GI50 (MCF7): 1.35 µM (inactive) | GI50 (CAKI-1): 3.28 µM (inactive) | GI50 (SNB-19): 7.06 µM (inactive)

CC(C)N(C(=O)C12C3C4C1C1C2C3C41C(N)=O)C(C)C (centres undefined)
GI50 (KM-20L2): > 100 µM (inactive) | GI50 (DMS-273): > 100 µM (inactive) | GI50 (NCI-H522): > 100 µM (inactive) | GI50 (EKVX): > 100 µM (inactive) | GI50 (M19-MEL): > 100 µM (inactive) | GI50 (SF-295): > 100 µM (inactive) | GI50 (786-0): > 100 µM (inactive) | GI50 (Malme-3M): > 100 µM (inactive) | GI50 (MOLT-4): > 100 µM (inactive) | GI50 (SF-268): > 100 µM (inactive) | GI50 (SF-539): > 100 µM (inactive) | GI50 (U-251): > 100 µM (inactive) | GI50 (ACHN): > 100 µM (inactive) | GI50 (SK-MEL-5): > 100 µM (inactive) | GI50 (HOP-92): > 100 µM (inactive) | GI50 (DMS-114): > 100 µM (inactive) | GI50 (A498): > 100 µM (inactive) | GI50 (OVCAR-8): > 100 µM (inactive) | GI50 (CCRF-CEM): > 100 µM (inactive) | GI50 (HCC 2998): > 100 µM (inactive) | GI50 (SNB-78): > 100 µM (inactive) | GI50 (SR): > 100 µM (inactive) | GI50 (OVCAR-3): > 100 µM (inactive) | GI50 (SW-620): > 100 µM (inactive) | GI50 (LXFL 529): > 100 µM (inactive) | GI50 (SN12C): > 100 µM (inactive) | GI50 (HOP-62): > 100 µM (inactive) | GI50 (K562): > 100 µM (inactive) | GI50 (UO-31): > 100 µM (inactive) | GI50 (RXF 631): > 100 µM (inactive) | GI50 (COLO 205): > 100 µM (inactive) | GI50 (M14): > 100 µM (inactive) | GI50 (SK-OV-3): > 100 µM (inactive) | GI50 (A549): > 100 µM (inactive) | GI50 (HCT-15): > 100 µM | GI50 (CAKI-1): > 100 µM (inactive) | GI50 (IGROV-1): > 100 µM (inactive) | GI50 (SNB-19): > 100 µM (inactive)

O=C1C2c3[nH]c4ccccc4c3[C@@H]3CCCCC3C2C(=O)N1c1ccccc1 (some centres undefined)
GI50 (HL-60): 20.3 µM (inactive) | GI50 (DMS-273): 17.3 µM (inactive) | GI50 (SNB-75): 27.2 µM (inactive) | GI50 (NCI-H23): 19.5 µM (inactive) | GI50 (EKVX): 15.3 µM (inactive) | GI50 (RXF 393): 16.7 µM (inactive) | GI50 (M19-MEL): 19.1 µM (inactive) | GI50 (SF-295): 21.1 µM (inactive) | GI50 (TK-10): 28 µM (inactive) | GI50 (786-0): 18.9 µM (inactive) | GI50 (Malme-3M): 20.6 µM (inactive) | GI50 (OVCAR-4): 20.5 µM (inactive) | GI50 (MOLT-4): 19 µM (inactive) | GI50 (OVCAR-5): 16.8 µM (inactive) | GI50 (SF-268): 18.7 µM (inactive) | GI50 (SF-539): > 10 µM (inactive) | GI50 (NCI-H226): 21 µM (inactive) | GI50 (U-251): 14.4 µM (inactive) | GI50 (ACHN): 25.4 µM (inactive) | GI50 (SK-MEL-5): 17.9 µM (inactive) | GI50 (SK-MEL-28): 18.2 µM (inactive) | GI50 (DMS-114): 22.1 µM (inactive) | GI50 (A498): 28.6 µM (inactive) | GI50 (HT-29): 19.7 µM (inactive) | GI50 (OVCAR-8): 26.4 µM (inactive) | GI50 (KM12): 19.2 µM (inactive) | GI50 (CCRF-CEM): 26.5 µM (inactive) | GI50 (HCC 2998): 19.3 µM (inactive) | GI50 (DLD-1): 26.2 µM (inactive) | GI50 (SNB-78): 19.3 µM (inactive) | GI50 (NCI-H460): 17.8 µM (inactive) | GI50 (SR): 19.8 µM (inactive) | GI50 (OVCAR-3): 15.4 µM (inactive) | GI50 (SW-620): 19.1 µM (inactive) | GI50 (RPMI-8226): 17.5 µM (inactive) | GI50 (LXFL 529): 17.6 µM (inactive) | GI50 (SN12C): 17.8 µM (inactive) | GI50 (K562): 20.9 µM (inactive) | GI50 (LOX IMVI): 15.8 µM (inactive) | GI50 (UO-31): 17.3 µM (inactive) | GI50 (RXF 631): 14.8 µM (inactive) | GI50 (COLO 205): 19.1 µM (inactive) | GI50 (M14): 15 µM (inactive) | GI50 (SK-OV-3): 26.9 µM (inactive) | GI50 (A549): 28.8 µM (inactive) | GI50 (UACC-62): 16.6 µM (inactive) | GI50 (HCT-15): 25.7 µM | GI50 (IGROV-1): 23 µM (inactive) | GI50 (SNB-19): 36.1 µM (inactive)
